Assay results published in article PMC10254649, “Design, Synthesis, and Biological Evaluation of Potent and Selective Inhibitors of Ataxia Telangiectasia Mutated and Rad3-Related (ATR) Kinase for the Efficient Treatment of Cancer” (Molecules, 2023).
Several values for one entry are separate records, joined by “and”; a condition that tells them apart may be missing. Identical values can stand only once. Like-named read-outs stand apart in the source and are kept apart here.

Legend:
LoVo cells [1] = test: Colony formation assay; type: cell-based, human; conditions: 14 days
From the text: LoVo cells at a concentration of 800 cells/well were exposed to various concentrations of ZH-12 for 14 days. After 14 days of treatment, the colonies were fixed with 4% paraformaldehyde, stained with 0.1% crystal violet, and imaged using an upright biological microscope (Olympus BX53, Tokyo, Japan). The experiments were repeated at least three times and plotted via GraphPad 8.0.

HCT116 cells = test: CCK-8 cell proliferation assay, HCT116; type: cell-based; conditions: Homo sapiens, HCT-116; CCK-8, 72 h, ATM-normal cell line, three independent experiments; read-out: IC50 ± SD, HCT116
Description: (§1) A549, HCT116, NCI-H23, and LoVo cells were purchased from the Cell Resources Center of Shanghai Academy of Life Sciences, Shanghai, China. A549 cells were cultured in McCoy’s5A medium supplemented with 10% FBS (KeyGEN Biotech, Nanjing, China) and 1% penicillin/streptomycin (Gibco, 15070-063). HCT116 cells were cultured in IMDM medium supplemented with 10% FBS (KeyGEN Biotech, Nanjing, China) and 1% penicillin/streptomycin (Gibco, 15070-063). NCI-H23 cells were cultured in RPMI 1640 medium supplemented with 10% FBS (KeyGEN Biotech, Nanjing, China) and 1% penicillin/streptomycin (Gibco, 15070-063). LoVo cells were cultured in F12K medium supplemented with 10% FBS (KeyGEN Biotech, Nanjing, China) and 1% penicillin/streptomycin (Gibco, 15070-063). All cells were cultured in an incubator at 37 °C under a 5% CO2 atmosphere.
(§2) For the assay, 3000/well cells were planted into 96-well plates for 24 h and then treated with the indicated doses of drugs or controls for 72 h. Following the manufacturer’s instructions, cell proliferation/survival was measured using the CCK-8 (KeyGEN Biotech, Nanjing, China) assay and plotted via GraphPad 8.0.

ATR = ATR (Homo sapiens, UniProt Q13535); test: In vitro inhibitory activity against the ATR enzyme; type: biochemical
207 kinases = test: Kinase panel selectivity screen at 1 μM; type: biochemical, human; conditions: single concentration of 1 μM, duplicate
[2] = system: p-ATR(Thr1989) and p-CHK1(Ser345); test: Western blot of ATR/CHK1 signaling in HU-treated LoVo cells; type: cell-based, human; conditions: LoVo cells treated with HU (hydroxyurea)
Description: (§3) LoVo cells with a density of 1 × 10^6 were inoculated in a small cell culture dish at a single density for 24 h and then treated with the specified concentration of 5% dimethyl sulfoxide or compound at different times. The cells were washed with cold PBS and lysed with RIPA buffer (Beyotime, Shanghai, China) containing protease inhibitors (Beyotime, Shanghai, China) and phosphatase inhibitors (Beyotime, Shanghai, China). After lysis of the total cell solution on ice for 60 min, the lysate was centrifuged (12,000 rpm, 4 °C, 20 min); The total protein concentrations obtained were determined using the BCA kit (Beyotime, Shanghai, China). A proper 6 × loading buffer was added before use, and the samples were denatured by boiling. Then, 30–100 μg of protein was loaded onto a 4–12% SDS-PAGE gel and then transferred to the PVDF membrane (Millipore). The membrane was occluded for 1 h, incubated overnight with primary antibody at 4 °C, followed by washing 3 times with Tris-buffered saline and Tween 20 (TBST) for 10 min. After incubation with a second antibody with horseradish peroxidase for 60 min at room temperature, the membrane was washed 3 times for 10 min with TBST. Finally, blotting was performed with an enhanced chemiluminescence assay kit (KeyGEN Biotech, Nanjing, China). The software ImageJ was used to quantify the percentage degradation of proteins. […]

LoVo cells [3] = test: Comet assay for DNA damage; type: cell-based, human; conditions: 72 h
Description: The comet assay was performed following the protocol of the manufacturer of the Comet Assay Kit (KeyGEN Biotech, Nanjing, China). […] After 3 days of treatment, the cells (1 × 10^4/mL) were collected, mixed with low-melting agarose at a ratio of 1:10 (v/v), layered on slides, lysed in lysis buffer at 4 °C for 2 h, and then lysed in alkaline lysis solution at room temperature for 30 min. Following electrophoresis, the cells were stained with PI and observed with an […] biomicroscope (Olympus BX53, Tokyo, Japan). Three images were randomly captured per slide.

LoVo xenografts = test: LoVo tumor xenograft mouse model, antitumor efficacy and tolerability; type: in vivo; conditions: for tumor growth inhibition (TGI): days 1-18, single agent
Description: Balb/c nude mice (18–22 g, female, 4 weeks old) were purchased from Hangzhou Medical College (Hangzhou, China). All mice were inoculated subcutaneously in the right flank with 5 × 10^6 LoVo cells to initiate tumor growth. When the mean tumor volume reached approximately 100 mm^3, all mice were randomly divided into 8 groups (n = 5 per group) based on body weight and volume. […] Cisplatin was administered twice a week at the indicated doses. Tumor size and animal weight were measured every 3 days. Tumor volume was calculated as tumor volume (cm^3) = (length × width^2)/2. Tumor inhibition rate (%) = (1 − mean tumor weight in the treatment group/mean tumor weight in the control group) × 100%. The results were obtained from 5 test mice (mean ± SD) and calculated using GraphPad 8.0 software.

LoVo cells [4] = test: CCK-8 cell proliferation assay, LoVo; type: cell-based; conditions: Homo sapiens, CCK-8, 72 h, ATM-deficient cell line, three independent experiments, read-out: IC50 ± SD, LoVo
Description: as §1, §2

LoVo cells [5] = test: Annexin V-FITC/PI apoptosis assay by flow cytometry; type: cell-based, human; conditions: 1 μM
Description: The percentage of apoptotic cells was determined by the Annexin V-FITC/PI double staining kit (KeyGEN Biotech, Nanjing, China). According to the manufacturer’s instructions, LoVo cells were stained with Annexin V-FITC and PI. The signal of the FITC and PI was recorded by BD FACSCelesta Flow Cytometer (BD FACSCelesta, Becton, Dickinson and Company) and the FlowJo software.

[6] = system: p-ATR(Thr1989) and p-CHK1(Ser345); test: Western blot of ATR/CHK1 signaling in LoVo xenograft tumors; type: in vivo, Balb/c nude mice; conditions: LoVo xenograft tumors, 50, 25 and 12.5 mg/kg
Description: as §3, with “The membrane was occluded for 1 h, incubated overnight with primary antibody at 4 °C, followed by washing 3 times with Tris-buffered saline and Tween 20 (TBST) for 10 min. After incubation with a second antibody with horseradish peroxidase for 60 min at room temperature, the membrane was washed 3 times for 10 min with TBST. Finally, blotting was performed with an enhanced chemiluminescence assay kit (KeyGEN Biotech, Nanjing, China).” left out
Balb/c nude mice (18–22 g, female, 4 weeks old) were purchased from Hangzhou Medical College (Hangzhou, China). […] Tumor size and animal weight were measured every 3 days. Tumor volume was calculated as tumor volume (cm^3) = (length × width^2)/2. […] The results were obtained from 5 test mice (mean ± SD) and calculated using GraphPad 8.0 software.

A549 cells = test: CCK-8 cell proliferation assay, A549; type: cell-based; conditions: Homo sapiens, CCK-8, 72 h, ATM-normal cell line, three independent experiments, read-out: IC50 ± SD, A549
Description: as §1, §2

LoVo cells [7] = test: Wound healing migration assay; type: cell-based, human; conditions: 48 h
Description: LoVo cells in the logarithmic phase were collected and seeded in 6-well plates and cultured overnight. A straight line was drawn across the cell with a sterile pipette tip. A culture medium containing different concentrations of ZH-12 or 0.1% DMSO (10% FBS) was added. Scratch widths were recorded under an inverted microscope (Olympus, Waltham, MA, USA) at 0 h and 48 h.

NCI-H23 cells = test: CCK-8 cell proliferation assay, NCI-H23; type: cell-based; conditions: Homo sapiens, CCK-8, 72 h, ATM-deficient cell line, three independent experiments, read-out: IC50 ± SD, NCI-H23
Description: as §1, §2

Sequence of ATR (Q13535 whole entry): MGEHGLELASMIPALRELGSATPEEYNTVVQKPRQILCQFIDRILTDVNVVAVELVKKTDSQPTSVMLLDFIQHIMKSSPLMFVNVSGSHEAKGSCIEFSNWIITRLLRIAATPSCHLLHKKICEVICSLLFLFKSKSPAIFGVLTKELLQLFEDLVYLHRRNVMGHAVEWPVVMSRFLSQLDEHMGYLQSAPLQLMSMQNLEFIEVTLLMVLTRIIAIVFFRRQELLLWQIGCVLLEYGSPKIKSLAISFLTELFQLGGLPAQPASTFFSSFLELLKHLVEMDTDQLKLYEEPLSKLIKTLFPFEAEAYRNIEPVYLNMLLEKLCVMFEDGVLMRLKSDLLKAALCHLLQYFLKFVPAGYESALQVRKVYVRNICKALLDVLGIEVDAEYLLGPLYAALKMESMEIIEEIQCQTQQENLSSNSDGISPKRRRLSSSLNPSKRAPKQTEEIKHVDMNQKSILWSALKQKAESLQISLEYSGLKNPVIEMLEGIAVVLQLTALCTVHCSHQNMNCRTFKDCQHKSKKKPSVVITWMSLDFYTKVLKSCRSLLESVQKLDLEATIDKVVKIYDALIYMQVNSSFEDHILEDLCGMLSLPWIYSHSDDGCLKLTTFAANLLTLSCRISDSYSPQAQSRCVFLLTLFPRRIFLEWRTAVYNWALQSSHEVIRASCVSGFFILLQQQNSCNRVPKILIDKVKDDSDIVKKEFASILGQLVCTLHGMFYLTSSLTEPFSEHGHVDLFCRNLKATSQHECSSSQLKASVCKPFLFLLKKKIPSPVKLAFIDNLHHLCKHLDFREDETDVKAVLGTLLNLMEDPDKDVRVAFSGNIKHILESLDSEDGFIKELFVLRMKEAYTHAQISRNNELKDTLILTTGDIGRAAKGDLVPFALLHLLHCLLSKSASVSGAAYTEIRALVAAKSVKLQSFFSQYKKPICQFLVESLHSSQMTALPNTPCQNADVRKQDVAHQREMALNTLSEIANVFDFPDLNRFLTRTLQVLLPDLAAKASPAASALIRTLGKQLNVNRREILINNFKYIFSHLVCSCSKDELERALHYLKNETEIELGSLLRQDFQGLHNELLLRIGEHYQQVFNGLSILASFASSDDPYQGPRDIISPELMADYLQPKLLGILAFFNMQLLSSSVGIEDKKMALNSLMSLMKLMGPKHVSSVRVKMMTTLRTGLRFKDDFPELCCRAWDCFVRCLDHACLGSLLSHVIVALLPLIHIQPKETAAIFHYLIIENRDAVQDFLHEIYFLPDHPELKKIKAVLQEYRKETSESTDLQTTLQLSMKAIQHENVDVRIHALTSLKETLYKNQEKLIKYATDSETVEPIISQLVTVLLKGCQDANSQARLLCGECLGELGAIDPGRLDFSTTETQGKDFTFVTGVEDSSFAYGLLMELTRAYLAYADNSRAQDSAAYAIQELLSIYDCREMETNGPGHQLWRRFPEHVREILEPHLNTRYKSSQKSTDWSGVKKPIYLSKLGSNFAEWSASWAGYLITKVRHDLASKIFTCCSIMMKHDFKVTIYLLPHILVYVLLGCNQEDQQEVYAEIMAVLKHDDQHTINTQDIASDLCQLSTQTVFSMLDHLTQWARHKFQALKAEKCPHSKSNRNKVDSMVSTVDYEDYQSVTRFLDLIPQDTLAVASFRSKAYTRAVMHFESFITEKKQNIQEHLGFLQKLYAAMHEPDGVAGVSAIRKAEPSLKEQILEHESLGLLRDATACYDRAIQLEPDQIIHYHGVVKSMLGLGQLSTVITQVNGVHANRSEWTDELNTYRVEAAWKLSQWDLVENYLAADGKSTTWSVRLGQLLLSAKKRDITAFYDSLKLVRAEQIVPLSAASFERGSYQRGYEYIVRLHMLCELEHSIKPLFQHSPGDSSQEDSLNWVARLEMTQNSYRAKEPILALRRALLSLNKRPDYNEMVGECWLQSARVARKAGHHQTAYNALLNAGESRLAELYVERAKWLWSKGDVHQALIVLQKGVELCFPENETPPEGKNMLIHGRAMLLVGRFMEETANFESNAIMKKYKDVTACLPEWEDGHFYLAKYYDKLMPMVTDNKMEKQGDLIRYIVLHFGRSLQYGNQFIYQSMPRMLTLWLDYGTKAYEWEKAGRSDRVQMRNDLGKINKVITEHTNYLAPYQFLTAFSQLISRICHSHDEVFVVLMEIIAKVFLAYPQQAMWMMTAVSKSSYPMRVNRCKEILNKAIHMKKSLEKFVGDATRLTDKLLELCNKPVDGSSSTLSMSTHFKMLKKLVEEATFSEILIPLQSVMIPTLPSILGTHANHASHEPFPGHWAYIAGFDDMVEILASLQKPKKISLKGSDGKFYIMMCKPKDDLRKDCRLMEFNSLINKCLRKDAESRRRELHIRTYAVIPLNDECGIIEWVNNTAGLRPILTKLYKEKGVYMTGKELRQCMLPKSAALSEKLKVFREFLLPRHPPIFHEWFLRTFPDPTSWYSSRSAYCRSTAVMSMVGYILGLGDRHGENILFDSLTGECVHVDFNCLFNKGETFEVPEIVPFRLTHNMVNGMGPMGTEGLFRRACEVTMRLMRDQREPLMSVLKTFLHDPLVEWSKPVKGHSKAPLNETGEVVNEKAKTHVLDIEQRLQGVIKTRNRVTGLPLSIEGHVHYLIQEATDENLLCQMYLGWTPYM
Sequence of ATR (Q8WXE1 whole entry partner): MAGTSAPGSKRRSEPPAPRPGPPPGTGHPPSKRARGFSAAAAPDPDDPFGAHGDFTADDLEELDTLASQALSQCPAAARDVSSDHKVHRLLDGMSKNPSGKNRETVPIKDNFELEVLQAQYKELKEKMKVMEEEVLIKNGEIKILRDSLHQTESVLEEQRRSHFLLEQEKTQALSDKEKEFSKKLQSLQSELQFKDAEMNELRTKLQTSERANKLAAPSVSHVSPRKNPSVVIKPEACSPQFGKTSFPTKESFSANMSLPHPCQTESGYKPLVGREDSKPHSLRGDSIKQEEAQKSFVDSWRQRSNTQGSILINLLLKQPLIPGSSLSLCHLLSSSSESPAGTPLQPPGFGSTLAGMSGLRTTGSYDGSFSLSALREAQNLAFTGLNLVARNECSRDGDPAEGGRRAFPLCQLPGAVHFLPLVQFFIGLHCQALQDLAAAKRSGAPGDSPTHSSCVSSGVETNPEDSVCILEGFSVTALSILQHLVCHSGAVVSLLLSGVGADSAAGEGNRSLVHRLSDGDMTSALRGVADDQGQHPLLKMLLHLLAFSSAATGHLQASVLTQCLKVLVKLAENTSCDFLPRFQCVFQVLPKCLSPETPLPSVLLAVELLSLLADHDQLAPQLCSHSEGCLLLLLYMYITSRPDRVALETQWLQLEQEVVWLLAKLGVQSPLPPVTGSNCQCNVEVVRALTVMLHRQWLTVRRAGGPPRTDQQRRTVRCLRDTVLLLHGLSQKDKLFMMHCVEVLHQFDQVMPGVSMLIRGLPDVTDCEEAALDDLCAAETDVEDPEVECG

**Q.** Which “colony formation (cell proliferation)” value (LoVo cells [1]) does the source give for `C[C@@H]1COCCN1c1nc(-c2cccc3[nH]ccc23)nc2c1CCN(C(=O)CC#N)C2` [ZH-12, (R)-3-(2-(1H-indol-4-yl)-4-(3-methylmorpholino)-5,8-dihydropyrido[3,4-d]pyrimidin-7(6H)-yl)-3-oxopropanenitrile] here?
**A.** The value was “inhibited cell proliferation dose-dependently”.

**Q.** What about the IC50 (HCT116 cells) of the same molecule?
**A.** Its IC50 is 1610 ± 80 nM.

**Q.** What about the IC50 (ATR; mean ± SD of two independent experiments, read-out: ATR IC50 ± SD) of the same molecule?
**A.** Its IC50 is 6.81 ± 0.04 nM.

**Q.** And the IC50 (ATR; read-out: ATR IC50)?
**A.** Its IC50 is 6.8 nM.

**Q.** And the “inhibitory activities against 207 kinases” value (207 kinases)?
**A.** Its value is “weak or no inhibitory activities against 207 kinases”.

**Q.** What about the “phosphorylation of ATR and CHK1, Western blot” value [2] of the same molecule?
**A.** Its value is “inhibited the phosphorylation of ATR and its downstream kinase CHK1 in a dose-dependent manner”.

**Q.** And the “DNA damage, comet assay” value (LoVo cells [3])?
**A.** Its value is “induced significant amounts of DNA damage dose-dependently”.

**Q.** And the “tail intensity, comet assay” value (LoVo cells [3]; 0.5 µM)?
**A.** Its value is “comparable tail intensity to AZD6738”.

**Q.** What about the “tumor growth inhibition (TGI)” value (LoVo xenografts; 12.5 mg/kg, intraperitoneally, twice daily) of the same molecule?
**A.** Its value is 27.0%.

**Q.** And the “tumor growth inhibition (TGI)” value (LoVo xenografts; 25 mg/kg twice daily, AZD6738 orally, ZH-12 intraperitoneally)?
**A.** Its value is 39.5%.

**Q.** What about the “tumor growth inhibition (TGI)” value (LoVo xenografts; 50 mg/kg, intraperitoneally, twice daily) of the same molecule?
**A.** Its value is 53.7% and 53.8%.

**Q.** What about the “body weight loss or toxicity” value (LoVo xenografts; ZH-12 12.5, 25 and 50 mg/kg BID for 18 days, single agent) of the same molecule?
**A.** Its value is “No significant body weight loss or toxicity was observed”.

**Q.** What about the IC50 (LoVo cells [4]) of the same molecule?
**A.** The IC50 was 290 ± 10 nM.

**Q.** What about the “apoptosis effect (percentage of apoptotic cells)” value (LoVo cells [5]) of the same molecule?
**A.** The value was 33.8%.

**Q.** What about the “ATR phosphorylation (p-ATR Thr1989) and CHK1 phosphorylation (p-CHK1 Ser345) in tumors” value [6] of the same molecule?
**A.** Its value is “significantly inhibited ATR phosphorylation”.

**Q.** What about the IC50 (A549 cells) of the same molecule?
**A.** The IC50 was 4740 ± 270 nM.

**Q.** What about the “cell migration, wound healing” value (LoVo cells [7]) of the same molecule?
**A.** Its value is “inhibited LoVo cell migration in a dose-dependent manner”.

**Q.** And the IC50 (NCI-H23 cells)?
**A.** Its IC50 is 770 ± 130 nM.
